Experimental data: ChEMBL document CHEMBL1132238, “A peptide agonist acts by occupation of a monomeric G protein-coupled receptor: dual sites of covalent attachment to domains near TM1 and TM7 of the same molecule make biologically significant domain-swapped dimerization unlikely” (J Med Chem, 1999)

These compounds were tested against T1, Cholecystokinin receptor (Homo sapiens, UniProt P32239+P32238) (assay: Ability to stimulate intracellular calcium response was determined using CCK receptor-bearing chinese hamster ovary cell line).
T1 sequence (P32239 whole entry): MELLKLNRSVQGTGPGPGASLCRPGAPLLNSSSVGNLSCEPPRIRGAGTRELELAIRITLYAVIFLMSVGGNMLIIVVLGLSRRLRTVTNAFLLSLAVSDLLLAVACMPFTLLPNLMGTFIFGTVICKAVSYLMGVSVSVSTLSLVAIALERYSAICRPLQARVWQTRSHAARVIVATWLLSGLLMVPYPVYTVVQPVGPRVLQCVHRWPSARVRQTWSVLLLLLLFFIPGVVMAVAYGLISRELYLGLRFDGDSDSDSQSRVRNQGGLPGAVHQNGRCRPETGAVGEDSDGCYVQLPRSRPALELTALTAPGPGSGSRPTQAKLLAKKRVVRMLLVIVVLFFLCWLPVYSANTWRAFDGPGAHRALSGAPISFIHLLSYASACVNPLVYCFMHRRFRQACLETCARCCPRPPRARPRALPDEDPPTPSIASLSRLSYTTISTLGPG
T1 sequence (P32238 whole entry): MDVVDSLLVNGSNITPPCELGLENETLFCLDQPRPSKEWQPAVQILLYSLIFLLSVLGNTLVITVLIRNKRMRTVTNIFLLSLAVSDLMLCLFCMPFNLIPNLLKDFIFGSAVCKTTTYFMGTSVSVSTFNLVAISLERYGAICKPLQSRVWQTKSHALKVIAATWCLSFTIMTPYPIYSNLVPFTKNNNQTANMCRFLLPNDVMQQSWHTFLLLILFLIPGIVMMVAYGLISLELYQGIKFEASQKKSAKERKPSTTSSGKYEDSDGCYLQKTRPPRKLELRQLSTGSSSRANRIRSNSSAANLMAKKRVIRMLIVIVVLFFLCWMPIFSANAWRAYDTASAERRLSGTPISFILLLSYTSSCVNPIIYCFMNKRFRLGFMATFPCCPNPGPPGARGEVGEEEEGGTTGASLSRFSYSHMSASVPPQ
Assay type: functional, cell-based, Cricetulus griseus

Structure (SMILES)	EC50
CCCC[C@H](NC(=O)[C@H](Cc1ccc(OS(=O)(=O)O)cc1)NC(=O)[C@H](CC(=O)O)NC(=O)CNC(=O)[C@H](N)Cc1ccc(O)cc1)C(=O)NCC(=O)N[C@@H](Cc1c[nH]c2ccccc12)C(=O)N[C@@H](CCCC)C(=O)N[C@@H](CC(=O)O)C(=O)N[C@@H](Cc1ccc(C(=O)c2ccccc2)cc1)C(N)=O	280 nM
CCCC[C@H](NC(=O)[C@H](Cc1c[nH]c2ccccc12)NC(=O)[C@H](Cc1ccc(C(=O)c2ccccc2)cc1)NC(=O)[C@H](CCCC)NC(=O)[C@H](Cc1ccc(OS(=O)(=O)O)cc1)NC(=O)[C@H](CC(=O)O)NC(=O)CNC(=O)[C@H](N)Cc1ccc(O)cc1)C(=O)N[C@@H](CC(=O)O)C(=O)N[C@@H](Cc1ccc(C(=O)c2ccccc2)cc1)C(N)=O	150 nM
CCCC[C@H](NC(=O)[C@H](Cc1c[nH]c2ccccc12)NC(=O)[C@H](Cc1ccc(C(=O)c2ccccc2)cc1)NC(=O)[C@H](CCCC)NC(=O)[C@H](Cc1ccc(OS(=O)(=O)O)cc1)NC(=O)[C@H](CC(=O)O)NC(=O)CNC(=O)[C@H](N)Cc1ccc(O)cc1)C(=O)N[C@@H](CC(=O)O)C(=O)N[C@@H](Cc1ccccc1)C(N)=O	28 nM
